Data from ChEMBL document CHEMBL1147945, “R-isomers of Arg-Gly-Asp (RGD) mimics as potent alphavbeta3 inhibitors” (Bioorg Med Chem, 2007).

Tests used:
[1] = target: Integrin alpha-V/beta-3 (Homo sapiens, UniProt P05106+P06756); assay: Inhibition of alphaVbeta3 integrin receptor expressed in human 293 cells; type: cell-based, HEK293
[2] = target: T1, Integrin alpha-V/beta-6 (Homo sapiens, UniProt P06756+P18564); assay: Inhibition of alpha-V-beta-6 integrin receptor in human 293 cells; type: cell-based, HEK293
[3] = target: T1, Integrin alpha-V/beta-6; assay: Inhibition of alpha-V-beta-6 integrin receptor in human HT29 cells; type: cell-based, HT-29
[4] = Half life in mouse at 20 mg/kg po or 10 mg/kg iv; type: ADME, organism-based; conditions: in vivo
[5] = Bioavailability in mouse at 20 mg/kg, po; type: ADME, organism-based; conditions: in vivo

Sequence of Integrin alpha-V/beta-3 (P05106 27-788 limits assumed): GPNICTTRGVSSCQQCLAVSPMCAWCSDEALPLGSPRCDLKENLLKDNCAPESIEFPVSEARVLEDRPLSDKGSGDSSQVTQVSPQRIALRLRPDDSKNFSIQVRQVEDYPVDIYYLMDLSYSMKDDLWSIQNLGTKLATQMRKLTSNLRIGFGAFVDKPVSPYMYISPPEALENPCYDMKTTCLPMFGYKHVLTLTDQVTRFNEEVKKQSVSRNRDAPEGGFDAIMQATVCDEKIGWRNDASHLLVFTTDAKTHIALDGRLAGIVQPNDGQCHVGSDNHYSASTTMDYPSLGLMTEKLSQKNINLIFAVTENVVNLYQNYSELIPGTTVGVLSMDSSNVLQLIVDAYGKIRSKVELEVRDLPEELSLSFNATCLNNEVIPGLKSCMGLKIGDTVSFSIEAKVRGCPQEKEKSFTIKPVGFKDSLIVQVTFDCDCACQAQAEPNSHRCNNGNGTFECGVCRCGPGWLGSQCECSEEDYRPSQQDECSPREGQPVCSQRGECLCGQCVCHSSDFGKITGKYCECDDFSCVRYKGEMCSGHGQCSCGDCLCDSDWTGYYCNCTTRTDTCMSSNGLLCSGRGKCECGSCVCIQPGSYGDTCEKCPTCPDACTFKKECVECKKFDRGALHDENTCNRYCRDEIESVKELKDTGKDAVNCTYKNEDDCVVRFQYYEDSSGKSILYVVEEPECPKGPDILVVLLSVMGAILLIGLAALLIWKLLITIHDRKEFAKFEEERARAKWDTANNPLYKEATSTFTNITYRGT
Sequence of Integrin alpha-V/beta-3 (P06756 31-889 limits assumed): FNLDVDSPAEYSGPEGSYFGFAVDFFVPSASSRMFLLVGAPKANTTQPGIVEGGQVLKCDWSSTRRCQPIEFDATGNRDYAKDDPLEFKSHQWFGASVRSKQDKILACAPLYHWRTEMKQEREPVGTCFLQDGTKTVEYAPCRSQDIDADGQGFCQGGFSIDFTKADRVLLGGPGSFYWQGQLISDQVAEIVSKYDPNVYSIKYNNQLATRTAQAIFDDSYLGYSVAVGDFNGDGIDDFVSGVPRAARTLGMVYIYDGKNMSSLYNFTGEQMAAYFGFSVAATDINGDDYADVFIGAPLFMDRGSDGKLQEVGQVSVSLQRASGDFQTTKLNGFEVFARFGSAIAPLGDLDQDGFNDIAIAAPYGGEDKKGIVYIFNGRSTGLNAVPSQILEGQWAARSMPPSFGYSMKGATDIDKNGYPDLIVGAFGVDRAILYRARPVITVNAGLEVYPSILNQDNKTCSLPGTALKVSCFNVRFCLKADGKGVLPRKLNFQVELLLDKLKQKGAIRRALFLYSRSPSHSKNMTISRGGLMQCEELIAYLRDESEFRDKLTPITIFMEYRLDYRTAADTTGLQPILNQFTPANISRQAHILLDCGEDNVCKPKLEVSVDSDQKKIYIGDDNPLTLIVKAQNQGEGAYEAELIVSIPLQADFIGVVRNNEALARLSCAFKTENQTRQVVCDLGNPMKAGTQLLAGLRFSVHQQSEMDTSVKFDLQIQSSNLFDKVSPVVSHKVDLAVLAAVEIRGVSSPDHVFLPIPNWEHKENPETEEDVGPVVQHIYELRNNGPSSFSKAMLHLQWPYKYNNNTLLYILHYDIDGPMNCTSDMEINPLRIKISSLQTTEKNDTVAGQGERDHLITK
Sequence of Integrin alpha-V/beta-3 (P06756 891-1048 limits assumed): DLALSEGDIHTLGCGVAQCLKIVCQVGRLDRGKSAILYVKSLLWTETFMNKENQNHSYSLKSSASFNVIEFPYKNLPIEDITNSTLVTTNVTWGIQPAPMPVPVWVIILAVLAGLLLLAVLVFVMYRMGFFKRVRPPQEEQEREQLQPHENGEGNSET
T1 sequence (P06756 31-889 limits assumed): as the sequence (P06756 31-889 limits assumed) above
T1 sequence (P06756 891-1048 limits assumed): as the sequence (P06756 891-1048 limits assumed) above
T1 sequence (P18564 22-788 limits assumed): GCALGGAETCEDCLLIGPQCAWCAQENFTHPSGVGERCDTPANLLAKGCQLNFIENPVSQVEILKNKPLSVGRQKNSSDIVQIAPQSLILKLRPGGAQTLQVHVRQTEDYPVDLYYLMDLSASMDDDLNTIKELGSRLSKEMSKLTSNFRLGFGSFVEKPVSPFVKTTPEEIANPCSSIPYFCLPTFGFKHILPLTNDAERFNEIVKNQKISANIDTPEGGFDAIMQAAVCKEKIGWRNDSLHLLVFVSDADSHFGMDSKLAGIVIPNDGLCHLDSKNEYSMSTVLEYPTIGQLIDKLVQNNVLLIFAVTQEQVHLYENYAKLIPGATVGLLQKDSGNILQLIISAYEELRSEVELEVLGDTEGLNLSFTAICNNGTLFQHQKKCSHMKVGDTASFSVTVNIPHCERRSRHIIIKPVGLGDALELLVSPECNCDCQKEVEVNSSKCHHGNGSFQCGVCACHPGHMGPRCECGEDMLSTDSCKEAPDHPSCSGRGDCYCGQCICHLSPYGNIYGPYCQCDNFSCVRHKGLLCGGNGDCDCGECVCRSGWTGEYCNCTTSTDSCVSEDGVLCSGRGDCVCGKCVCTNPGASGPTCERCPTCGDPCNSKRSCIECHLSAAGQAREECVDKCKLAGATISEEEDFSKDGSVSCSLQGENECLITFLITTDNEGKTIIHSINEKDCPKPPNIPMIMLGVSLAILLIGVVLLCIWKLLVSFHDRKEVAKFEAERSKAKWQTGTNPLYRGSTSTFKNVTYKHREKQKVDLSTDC

SMILES	IC50 [1] [nM]	IC50 [2] [nM]	IC50 [3] [nM]	half-life [4] [h]	bioavailability [5] [%]
O=C(O)C[C@@H](NC(=O)CNC(=O)c1cccc(NC2=NCCCN2)c1)c1cc(Cl)cc(I)c1O	7	–	10000	–	–
O=C(O)C[C@@H](NC(=O)CNC(=O)c1cc(O)cc(NC2=NCC(O)CN2)c1)c1cc(Cl)cc(I)c1O (some centres undefined)	3	–	631	–	–
O=C(O)C[C@@H](NC(=O)CNC(=O)c1cccc(NC2=NCC(O)CN2)c1)c1cc(Cl)cc(Br)c1O (some centres undefined)	5	–	3530	–	–
O=C(O)C[C@@H](NC(=O)CNC(=O)c1cc(O)cc(NC2=NCCCN2)c1)c1cc(Br)cc(Cl)c1O	10	–	151	–	–
O=C(O)C[C@@H](NC(=O)CNC(=O)c1cc(O)cc(NC2=NCCCN2)c1)c1cc(Cl)cc(I)c1O	9	1780	–	–	–
Cc1cc(C)c(O)c([C@@H](CC(=O)O)NC(=O)CNC(=O)c2cc(O)cc(NC3=NCC(O)CN3)c2)c1 (some centres undefined)	54	–	118	–	–
O=C(O)C[C@@H](NC(=O)CNC(=O)c1cc(O)cc(NC2=NCC(F)CN2)c1)c1cc(Cl)cc(I)c1O (some centres undefined)	3	164	–	–	–
Cc1cc(C)c(O)c([C@@H](CC(=O)O)NC(=O)CNC(=O)c2cc(N)cc(NC3=NCC(F)CN3)c2)c1 (some centres undefined)	10	–	65	–	–
O=C(O)C[C@@H](NC(=O)CNC(=O)c1cc(O)cc(N=C2NCCCN2)c1)c1cc(Br)cc(Br)c1O	20	–	204	–	–
O=C(O)C[C@@H](NC(=O)CNC(=O)c1cc(O)cc(NC2=NCC(O)CN2)c1)c1cc(Cl)cc(Br)c1O (some centres undefined)	3	52	–	–	–
Nc1cc(NC2=NCC(F)CN2)cc(C(=O)NCC(=O)N[C@H](CC(=O)O)c2cc(Cl)cc(Br)c2O)c1 (some centres undefined)	3	–	3440	–	–
O=C(O)C[C@@H](NC(=O)CNC(=O)c1cc(O)cc(NC2=NCC(O)CN2)c1)c1cc(Br)cc(Br)c1O (some centres undefined)	21	–	96	–	–
O=C(O)C[C@@H](NC(=O)CNC(=O)c1cccc(NC2=NCC(O)CN2)c1)c1cc(Br)cc(Br)c1O (some centres undefined)	10	–	25	–	–
O=C(O)C[C@@H](NC(=O)CNC(=O)c1cc(O)cc(NC2=NCCCN2)c1)c1cc(Cl)cc(Cl)c1O	3	–	3000	–	–
O=C(O)C[C@@H](NC(=O)CNC(=O)c1cc(O)cc(NC2=NCC(F)CN2)c1)c1cc(Br)cc(Br)c1O (some centres undefined)	3	–	3420	–	–
O=C(O)C[C@@H](NC(=O)CNC(=O)c1cccc(NC2=NCCCN2)c1)c1cc(Br)cc(Br)c1O	4	–	3210	–	–
O=C(O)C[C@@H](NC(=O)CNC(=O)c1cc(O)cc(NC2=NCCCN2)c1)c1cc(Cl)cc(Br)c1O	10	–	2740	–	–
Cc1cc(Cl)cc([C@@H](CC(=O)O)NC(=O)CNC(=O)c2cc(O)cc(NC3=NCC(O)CN3)c2)c1O (some centres undefined)	18	–	688	–	–
O=C(O)C[C@@H](NC(=O)CNC(=O)c1cccc(NC2=NCCCN2)c1)c1cc(Cl)cc(Br)c1O	5	–	6540	–	–
O=C(O)C[C@H](NC(=O)CNC(=O)c1cc(O)cc(N=C2NCC(F)(F)CN2)c1)c1cc(Cl)cc(Br)c1O	5	–	–	–	–

Molecules with a lower IC50 [1], results first:

IC50 [1] [nM]	IC50 [2] [nM]	IC50 [3] [nM]	half-life [4] [h]	bioavailability [5] [%]	SMILES
1	622	–	–	–	O=C(O)C[C@@H](NC(=O)CNC(=O)c1cncc(NC2=NCC(O)CN2)c1)c1cc(Cl)cc(I)c1O (some centres undefined)
0.2	–	–	–	–	O=C(O)C[C@H](NC(=O)CNC(=O)c1cccc(NC2=NCC(F)CN2)c1)c1cc(Cl)cc(Br)c1O (some centres undefined)
0.4	–	–	–	–	O=C(O)C[C@H](NC(=O)CNC(=O)c1cncc(NC2=NCC(F)CN2)c1)c1cc(Cl)cc(Br)c1O (some centres undefined)
1.6	–	–	–	–	O=C(O)C[C@H](NC(=O)CNC(=O)c1cccc(N=C2NCC(O)CN2)c1)c1cc(Cl)cc(I)c1O (some centres undefined)
0.7	–	1830	–	–	O=C(O)C[C@@H](NC(=O)CNC(=O)c1cncc(NC2=NCC(F)CN2)c1)c1cc(Cl)cc(Br)c1O (some centres undefined)
0.7	20	–	–	–	O=C(O)C[C@@H](NC(=O)CNC(=O)c1cccc(NC2=NCC(O)CN2)c1)c1cc(Cl)cc(Cl)c1O (some centres undefined)
0.6	–	–	5.1	13.6	O=C(O)C[C@H](NC(=O)CNC(=O)c1cc(O)cc(N=C2NCC(F)CN2)c1)c1cc(Cl)cc(Br)c1O (some centres undefined)
1	–	14	–	–	O=C(O)C[C@@H](NC(=O)CNC(=O)c1cncc(NC2=NCC(F)CN2)c1)c1cc(Cl)cc(Cl)c1O (some centres undefined)
2	–	–	–	–	O=C(O)C[C@H](NC(=O)CNC(=O)c1cccc(NC2=NCCCN2)c1)c1cc(Cl)cc(Br)c1O
0.3	–	12300	–	–	Nc1cc(NC2=NCC(O)CN2)cc(C(=O)NCC(=O)N[C@H](CC(=O)O)c2cc(Cl)cc(I)c2O)c1 (some centres undefined)
1	–	11500	–	–	O=C(O)C[C@@H](NC(=O)CNC(=O)c1cccc(NC2=NCC(O)CN2)c1)c1cc(Cl)cc(I)c1O (some centres undefined)
1	–	–	–	–	Cc1cc(C)c(O)c([C@H](CC(=O)O)NC(=O)CNC(=O)c2cc(O)cc(NC3=NCC(O)CN3)c2)c1 (some centres undefined)
